Reference: PubChem BioAssay (NCI)
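Briefly, cells in 96-well plates were exposed to five compound concentrations for 48 h, and endpoints were estimated by linear interpolation. The concentration for 50% growth inhibition is given as GI50. The concentration for full growth arrest is given as TGI.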

Key:
Experiment in all cases: NCI-60 cell line screen, 48 h
OVCAR-4 ovarian = test system: OVCAR-4 ovarian
UACC-62 melanoma = test system: UACC-62 melanoma
MDA-MB-231 breast = test system: MDA-MB-231 breast
SK-OV-3 ovarian = test system: SK-OV-3 ovarian
COLO 205 colon = test system: COLO 205 colon
SF-268 CNS = test system: SF-268 CNS
SF-539 CNS = test system: SF-539 CNS
MDA-MB-435 = test system: MDA-MB-435
M14 melanoma = test system: M14 melanoma
RPMI-8226 leukemia = test system: RPMI-8226 leukemia
KM12 colon = test system: KM12 colon
SNB-19 CNS = test system: SNB-19 CNS
SW-620 colon = test system: SW-620 colon
786-0 renal = test system: 786-0 renal
A549 NSCLC = test system: A549 NSCLC
HOP-92 NSCLC = test system: HOP-92 NSCLC
OVCAR-5 ovarian = test system: OVCAR-5 ovarian
OVCAR-8 ovarian = test system: OVCAR-8 ovarian
HCT-116 colon = test system: HCT-116 colon
NCI/ADR-RES ovarian = test system: NCI/ADR-RES ovarian
CCRF-CEM leukemia = test system: CCRF-CEM leukemia
TK-10 renal = test system: TK-10 renal
HS 578T breast = test system: HS 578T breast
HL-60(TB) leukemia = test system: HL-60(TB) leukemia
IGROV1 ovarian = test system: IGROV1 ovarian
NCI-H460 lung = test system: NCI-H460 lung
HCC-2998 colon = test system: HCC-2998 colon
SF-295 CNS = test system: SF-295 CNS
HCT-15 colon = test system: HCT-15 colon
UACC-257 melanoma = test system: UACC-257 melanoma
NCI-H226 lung = test system: NCI-H226 lung
NCI-H23 lung = test system: NCI-H23 lung
NCI-H522 lung = test system: NCI-H522 lung
PC-3 prostate = test system: PC-3 prostate
MCF7 breast = test system: MCF7 breast
K-562 leukemia = test system: K-562 leukemia
MALME-3M melanoma = test system: MALME-3M melanoma
HT29 colon = test system: HT29 colon
A498 renal = test system: A498 renal
BT-549 breast = test system: BT-549 breast
SK-MEL-2 melanoma = test system: SK-MEL-2 melanoma
UO-31 renal = test system: UO-31 renal
EKVX NSCLC = test system: EKVX NSCLC
HOP-62 NSCLC = test system: HOP-62 NSCLC
SN12C renal = test system: SN12C renal
MOLT-4 leukemia = test system: MOLT-4 leukemia
SK-MEL-5 melanoma = test system: SK-MEL-5 melanoma
SK-MEL-28 melanoma = test system: SK-MEL-28 melanoma
T-47D breast = test system: T-47D breast
CAKI-1 renal = test system: CAKI-1 renal
ACHN renal = test system: ACHN renal
U251 CNS = test system: U251 CNS
DU-145 prostate = test system: DU-145 prostate
RXF 393 renal = test system: RXF 393 renal
SR leukemia = test system: SR leukemia

O=[N+]([O-])c1ccc(-c2nnc(SCc3ccc(O)c4ncccc34)n2-c2ccccc2)cc1
GI50 (OVCAR-4 ovarian): 2120 nM | TGI (OVCAR-4 ovarian): > 100000 nM | GI50 (UACC-62 melanoma): 2060 nM | TGI (UACC-62 melanoma): > 100000 nM | GI50 (MDA-MB-231 breast): 1050 nM | TGI (MDA-MB-231 breast): 4690 nM | GI50 (SK-OV-3 ovarian): 1760 nM | TGI (SK-OV-3 ovarian): 6350 nM | GI50 (COLO 205 colon): 2510 nM | TGI (COLO 205 colon): 7020 nM | GI50 (SF-268 CNS): 360 nM | TGI (SF-268 CNS): > 100000 nM | GI50 (SF-539 CNS): 377 nM | TGI (SF-539 CNS): > 100000 nM | GI50 (MDA-MB-435): 329 nM | TGI (MDA-MB-435): > 100000 nM | GI50 (M14 melanoma): 493 nM | TGI (M14 melanoma): > 100000 nM | GI50 (RPMI-8226 leukemia): 695 nM | TGI (RPMI-8226 leukemia): > 100000 nM | GI50 (KM12 colon): 585 nM | TGI (KM12 colon): > 100000 nM | GI50 (SNB-19 CNS): 254 nM | TGI (SNB-19 CNS): > 100000 nM | GI50 (SW-620 colon): 479 nM | TGI (SW-620 colon): > 100000 nM | GI50 (786-0 renal): 1360 nM | TGI (786-0 renal): > 84200 nM | GI50 (A549 NSCLC): 410 nM | TGI (A549 NSCLC): > 100000 nM | GI50 (HOP-92 NSCLC): 69 nM | TGI (HOP-92 NSCLC): 598 nM | GI50 (OVCAR-5 ovarian): 3350 nM | TGI (OVCAR-5 ovarian): > 100000 nM | GI50 (OVCAR-8 ovarian): 240 nM | TGI (OVCAR-8 ovarian): > 100000 nM | GI50 (HCT-116 colon): 127 nM | TGI (HCT-116 colon): > 100000 nM | GI50 (NCI/ADR-RES ovarian): 7350 nM | TGI (NCI/ADR-RES ovarian): > 100000 nM | GI50 (CCRF-CEM leukemia): 507 nM | TGI (CCRF-CEM leukemia): > 100000 nM | GI50 (TK-10 renal): 2860 nM | TGI (TK-10 renal): > 100000 nM | GI50 (HS 578T breast): 312 nM | TGI (HS 578T breast): > 100000 nM | GI50 (HL-60(TB) leukemia): 447 nM | TGI (HL-60(TB) leukemia): > 22900 nM | GI50 (IGROV1 ovarian): 1560 nM | TGI (IGROV1 ovarian): > 100000 nM | GI50 (NCI-H460 lung): 229 nM | TGI (NCI-H460 lung): > 100000 nM | GI50 (HCC-2998 colon): 1400 nM | TGI (HCC-2998 colon): > 100000 nM | GI50 (SF-295 CNS): 444 nM | TGI (SF-295 CNS): 5040 nM | GI50 (HCT-15 colon): 1050 nM | TGI (HCT-15 colon): > 100000 nM | GI50 (UACC-257 melanoma): 1380 nM | TGI (UACC-257 melanoma): > 26100 nM | GI50 (NCI-H226 lung): 4300 nM | TGI (NCI-H226 lung): > 100000 nM | GI50 (NCI-H23 lung): 433 nM | TGI (NCI-H23 lung): > 100000 nM | GI50 (NCI-H522 lung): 253 nM | TGI (NCI-H522 lung): > 29600 nM | GI50 (PC-3 prostate): 114 nM | TGI (PC-3 prostate): > 100000 nM | GI50 (MCF7 breast): 325 nM | TGI (MCF7 breast): > 100000 nM | GI50 (K-562 leukemia): 447 nM | TGI (K-562 leukemia): > 100000 nM | GI50 (MALME-3M melanoma): 1170 nM | TGI (MALME-3M melanoma): 8450 nM | GI50 (HT29 colon): 3190 nM | TGI (HT29 colon): > 100000 nM | GI50 (A498 renal): 2300 nM | TGI (A498 renal): 17000 nM | GI50 (BT-549 breast): 175 nM | TGI (BT-549 breast): > 100000 nM | GI50 (SK-MEL-2 melanoma): 314 nM | TGI (SK-MEL-2 melanoma): 1820 nM | GI50 (UO-31 renal): 1950 nM | TGI (UO-31 renal): > 100000 nM | GI50 (EKVX NSCLC): 1430 nM | TGI (EKVX NSCLC): > 100000 nM | GI50 (HOP-62 NSCLC): 990 nM | TGI (HOP-62 NSCLC): > 100000 nM | GI50 (SN12C renal): 293 nM | TGI (SN12C renal): > 100000 nM | GI50 (MOLT-4 leukemia): 777 nM | TGI (MOLT-4 leukemia): > 100000 nM | GI50 (SK-MEL-5 melanoma): 363 nM | TGI (SK-MEL-5 melanoma): 1970 nM | GI50 (SK-MEL-28 melanoma): 715 nM | TGI (SK-MEL-28 melanoma): > 100000 nM | GI50 (T-47D breast): 834 nM | TGI (T-47D breast): > 100000 nM | GI50 (CAKI-1 renal): 2410 nM | TGI (CAKI-1 renal): > 100000 nM | GI50 (ACHN renal): 2030 nM | TGI (ACHN renal): > 100000 nM | GI50 (U251 CNS): 191 nM | TGI (U251 CNS): > 100000 nM | GI50 (DU-145 prostate): 442 nM | TGI (DU-145 prostate): > 100000 nM | GI50 (RXF 393 renal): 651 nM | TGI (RXF 393 renal): > 100000 nM | GI50 (SR leukemia): 420 nM | TGI (SR leukemia): > 100000 nM
